Laboratory results as given in patent publication US20230085307A1, “PYRIDAZINONE COMPOUND AND HERBICIDE” (NISSAN CHEMICAL CORPORATION, priority 2019, published 2023).

Tests used:
barnyard grass [1] = test: Test Example 3: herbicidal effect by foliage application, Wagner pot (Table 18, symbol H); type: in vivo, barnyard grass (Echinochloa crus-galli)
How it was run: (§1)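 Plants were sown in alluvial soil held under 0.1–0.5 cm standing water and grown 14 days in a greenhouse at 25–30 °C. An emulsifiable formulation, water-diluted to the set dose, was then sprayed onto the foliage, and effects were scored three weeks later using previously defined criteria.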

barnyard grass [2] = test: Test Example 5: herbicidal effect by foliage application, plastic box (Table 20, symbol H); type: in vivo, barnyard grass (Echinochloa crus-galli); details: foliage application; for H: barnyard grass, herbicidal effect: three weeks after application
How it was run: (§2)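 Foliar spray test: emulsion formulation diluted in water to a set application rate, sprayed onto 14-day-old plants raised in diluvial soil at 25° C to 30° C under glass. Both herbicidal effect and crop effect rated visually three weeks later.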

persian speedwell = test: Test Example 5: herbicidal effect by foliage application, plastic box (Table 20, symbol R); type: in vivo, Persian speedwell (Veronica persica); details: foliage application; for R: persian speedwell, herbicidal effect: three weeks after application
How it was run: as §2

Italian ryegrass = test: Test Example 5: herbicidal effect by foliage application, plastic box (Table 20, symbol K); type: in vivo, Italian ryegrass (Lolium multiflorum); details: foliage application; for K: Italian ryegrass, herbicidal effect: three weeks after application
How it was run: as §2

rice flat sedge = test: Test Example 3: herbicidal effect by foliage application, Wagner pot (Table 18, symbol E); type: in vivo, rice flat sedge (Cyperus iria)
How it was run: as §1

windgrass = test: Test Example 5: herbicidal effect by foliage application, plastic box (Table 20, symbol L); type: in vivo, windgrass (Apera spica-venti); details: foliage application; for L: windgrass, herbicidal effect: three weeks after application
How it was run: as §2

Chinese sprangletop = test: Test Example 3: herbicidal effect by foliage application, Wagner pot (Table 18, symbol D); type: in vivo, chinese sprangletop (Leptochloa chinensis)
How it was run: as §1

green foxtail = test: Test Example 5: herbicidal effect by foliage application, plastic box (Table 20, symbol G); type: in vivo, green foxtail (Setaria viridis); details: foliage application; for G: green foxtail, herbicidal effect: three weeks after application
How it was run: as §2

southern crabgrass = test: Test Example 5: herbicidal effect by foliage application, plastic box (Table 20, symbol F); type: in vivo, southern crabgrass (Digitaria ciliaris); details: foliage application; for F: southern crabgrass, herbicidal effect: three weeks after application
How it was run: as §2

velvetleaf = test: Test Example 5: herbicidal effect by foliage application, plastic box (Table 20, symbol M); type: in vivo, velvetleaf (Abutilon theophrasti); details: foliage application; for M: velvetleaf, herbicidal effect: three weeks after application
How it was run: as §2

wild oat = test: Test Example 5: herbicidal effect by foliage application, plastic box (Table 20, symbol I); type: in vivo, wild oat (Avena fatua); details: foliage application; for I: wild oat, herbicidal effect: three weeks after application
How it was run: as §2

chickweed = test: Test Example 5: herbicidal effect by foliage application, plastic box (Table 20, symbol P); type: in vivo, common chickweed (Stellaria media); details: foliage application; for P: chickweed, herbicidal effect: three weeks after application
Description: [Test Example 5] Herbicidal Effect Test by Foliage Application
Sterilized diluvial soil was placed in a plastic box having a length of 21 cm, a width of 13 cm, and a depth of 7 cm. The seeds of each of southern crabgrass, green foxtail, barnyard grass, wild oat, blackgrass, Italian ryegrass, windgrass, velvetleaf, redroot pigweed, lambsquarters, chickweed, false cleavers, persian speedwell, corn, soybean, rice, wheat, beet, and rapeseed were sowed in a spot-like manner and covered with the soil having a thickness of about 1.5 cm. Thereafter, the plants were grown in a greenhouse at 25° C. to 30° C. After 14-day growth of the plants, the emulsion agent of the compound of the present invention prepared according to Formulation Example 2 was diluted with water so as to achieve a predetermined herbicide amount, and the diluted emulsion agent was uniformly applied to a foliage part with a small-sized spray. Three weeks after the herbicide application, the effect of the herbicide on each plant was evaluated according to the criteria of Test Example 1.

blackgrass = test: Test Example 5: herbicidal effect by foliage application, plastic box (Table 20, symbol J); type: in vivo, blackgrass (Alopecurus myosuroides); details: foliage application; for J: blackgrass, herbicidal effect: three weeks after application
How it was run: as §2

redroot pigweed = test: Test Example 5: herbicidal effect by foliage application, plastic box (Table 20, symbol N); type: in vivo, redroot pigweed (Amaranthus retroflexus); details: foliage application; for N: redroot pigweed, herbicidal effect: three weeks after application
How it was run: as §2

lambsquarters = test: Test Example 5: herbicidal effect by foliage application, plastic box (Table 20, symbol O); type: in vivo, lambsquarters (Chenopodium album); details: foliage application; for O: lambsquarters, herbicidal effect: three weeks after application
How it was run: as §2

[3] = 320 g/ha, evaluated three weeks after application
[4] = amount of applied herbicide 320 g/ha

COc1cc(C(F)(F)F)ccc1-c1sc2ccccc2c1-c1c(O)c(C)nn(C)c1=O [1-155]
herbicidal effect on H (barnyard grass), rating 0-5 (barnyard grass [1]; 320 g/ha): 3 (Herbicidal rate of 40% or more and less than 70%) | H: barnyard grass, herbicidal effect (barnyard grass [2]; AAH 320 g/ha): 1 (Herbicidal rate of 5% or more and less than 20%) | R: persian speedwell, herbicidal effect (persian speedwell; AAH 320 g/ha): 4 (Herbicidal rate of 70% or more and less than 90%) | K: Italian ryegrass, herbicidal effect (Italian ryegrass; AAH 320 g/ha): 4 (Herbicidal rate of 70% or more and less than 90%) | herbicidal effect on E (rice flat sedge), rating 0-5 (rice flat sedge; 320 g/ha): 3 (Herbicidal rate of 40% or more and less than 70%) | L: windgrass, herbicidal effect (windgrass; AAH 320 g/ha): 4 (Herbicidal rate of 70% or more and less than 90%) | herbicidal effect on D (Chinese sprangletop), rating 0-5 (Chinese sprangletop; 320 g/ha): 0 (Herbicidal rate of 5% or less (almost no effect)) | G: green foxtail, herbicidal effect (green foxtail; AAH 320 g/ha): 3 (Herbicidal rate of 40% or more and less than 70%) | F: southern crabgrass, herbicidal effect (southern crabgrass; AAH 320 g/ha): 0 (Herbicidal rate of 5% or less (almost no effect)) | M: velvetleaf, herbicidal effect (velvetleaf; AAH 320 g/ha): 0 (Herbicidal rate of 5% or less (almost no effect)) | I: wild oat, herbicidal effect (wild oat; AAH 320 g/ha): 1 (Herbicidal rate of 5% or more and less than 20%) | P: chickweed, herbicidal effect (chickweed; AAH 320 g/ha): 5 (Herbicidal rate of 90% or more (almost completely withered)) | J: blackgrass, herbicidal effect (blackgrass; AAH 320 g/ha): 4 (Herbicidal rate of 70% or more and less than 90%) | N: redroot pigweed, herbicidal effect (redroot pigweed; AAH 320 g/ha): 2 (Herbicidal rate of 20% or more and less than 40%) | O: lambsquarters, herbicidal effect (lambsquarters; AAH 320 g/ha): 1 (Herbicidal rate of 5% or more and less than 20%)

CCCC(=O)Oc1c(OC)nn(C)c(=O)c1-c1c(-c2ccc(OC(F)(F)F)cc2)sc2ccccc12 [1-163]
herbicidal effect on H (barnyard grass), rating 0-5 (barnyard grass [1]; 80 g/ha): 1 (Herbicidal rate of 5% or more and less than 20%) | H: barnyard grass, herbicidal effect (barnyard grass [2]; AAH 80 g/ha): 0 (Herbicidal rate of 5% or less (almost no effect)) | R: persian speedwell, herbicidal effect (persian speedwell; AAH 80 g/ha): 5 (Herbicidal rate of 90% or more (almost completely withered)) | K: Italian ryegrass, herbicidal effect (Italian ryegrass; AAH 80 g/ha): 0 (Herbicidal rate of 5% or less (almost no effect)) | herbicidal effect on E (rice flat sedge), rating 0-5 (rice flat sedge; 80 g/ha): 0 (Herbicidal rate of 5% or less (almost no effect)) | L: windgrass, herbicidal effect (windgrass; AAH 80 g/ha): 0 (Herbicidal rate of 5% or less (almost no effect)) | herbicidal effect on D (Chinese sprangletop), rating 0-5 (Chinese sprangletop; 80 g/ha): 3 (Herbicidal rate of 40% or more and less than 70%) | G: green foxtail, herbicidal effect (green foxtail; AAH 80 g/ha): 0 (Herbicidal rate of 5% or less (almost no effect)) | F: southern crabgrass, herbicidal effect (southern crabgrass; AAH 80 g/ha): 0 (Herbicidal rate of 5% or less (almost no effect)) | M: velvetleaf, herbicidal effect (velvetleaf; AAH 80 g/ha): 0 (Herbicidal rate of 5% or less (almost no effect)) | I: wild oat, herbicidal effect (wild oat; AAH 80 g/ha): 0 (Herbicidal rate of 5% or less (almost no effect)) | P: chickweed, herbicidal effect (chickweed; AAH 80 g/ha): 4 (Herbicidal rate of 70% or more and less than 90%) | J: blackgrass, herbicidal effect (blackgrass; AAH 80 g/ha): 0 (Herbicidal rate of 5% or less (almost no effect)) | N: redroot pigweed, herbicidal effect (redroot pigweed; AAH 80 g/ha): 3 (Herbicidal rate of 40% or more and less than 70%) | O: lambsquarters, herbicidal effect (lambsquarters; AAH 80 g/ha): 2 (Herbicidal rate of 20% or more and less than 40%)

COC(=O)COc1ccc(-c2sc3ccc(F)cc3c2-c2c(O)c(C)nn(C)c2=O)cc1 [2-070]
herbicidal effect on H (barnyard grass), rating 0-5 (barnyard grass [1]; 320 g/ha): 2 (Herbicidal rate of 20% or more and less than 40%) | herbicidal effect on H: barnyard grass (barnyard grass [2]; [3]): 0 (Herbicidal rate of 5% or less (almost no effect)) | herbicidal effect on R: persian speedwell (persian speedwell; [3]): 0 (Herbicidal rate of 5% or less (almost no effect)) | herbicidal effect on K: Italian ryegrass (Italian ryegrass; [3]): 0 (Herbicidal rate of 5% or less (almost no effect)) | herbicidal effect on E (rice flat sedge), rating 0-5 (rice flat sedge; 320 g/ha): 0 (Herbicidal rate of 5% or less (almost no effect)) | herbicidal effect on L: windgrass (windgrass; [3]): 0 (Herbicidal rate of 5% or less (almost no effect)) | herbicidal effect on D (Chinese sprangletop), rating 0-5 (Chinese sprangletop; 320 g/ha): 0 (Herbicidal rate of 5% or less (almost no effect)) | herbicidal effect on G: green foxtail (green foxtail; [3]): 0 (Herbicidal rate of 5% or less (almost no effect)) | herbicidal effect on F: southern crabgrass (southern crabgrass; [3]): 0 (Herbicidal rate of 5% or less (almost no effect)) | herbicidal effect on M: velvetleaf (velvetleaf; [3]): 0 (Herbicidal rate of 5% or less (almost no effect)) | herbicidal effect on I: wild oat (wild oat; [3]): 0 (Herbicidal rate of 5% or less (almost no effect)) | herbicidal effect on P: chickweed (chickweed; [3]): 0 (Herbicidal rate of 5% or less (almost no effect)) | herbicidal effect on J: blackgrass (blackgrass; [3]): 0 (Herbicidal rate of 5% or less (almost no effect)) | herbicidal effect on N: redroot pigweed (redroot pigweed; [3]): 2 (Herbicidal rate of 20% or more and less than 40%) | herbicidal effect on O: lambsquarters (lambsquarters; [3]): 0 (Herbicidal rate of 5% or less (almost no effect))

Cc1nn(C)c(=O)c(-c2c(-c3ccc(Oc4ccccc4)cc3)sc3ccc(F)cc23)c1O [2-072]
herbicidal effect on H (barnyard grass), rating 0-5 (barnyard grass [1]; 320 g/ha): 2 (Herbicidal rate of 20% or more and less than 40%) | herbicidal effect on H: barnyard grass (barnyard grass [2]; [3]): 0 (Herbicidal rate of 5% or less (almost no effect)) | herbicidal effect on R: persian speedwell (persian speedwell; [3]): 5 (Herbicidal rate of 90% or more (almost completely withered)) | herbicidal effect on K: Italian ryegrass (Italian ryegrass; [3]): 0 (Herbicidal rate of 5% or less (almost no effect)) | herbicidal effect on E (rice flat sedge), rating 0-5 (rice flat sedge; 320 g/ha): 5 (Herbicidal rate of 90% or more (almost completely withered)) | herbicidal effect on L: windgrass (windgrass; [3]): 0 (Herbicidal rate of 5% or less (almost no effect)) | herbicidal effect on D (Chinese sprangletop), rating 0-5 (Chinese sprangletop; 320 g/ha): 3 (Herbicidal rate of 40% or more and less than 70%) | herbicidal effect on G: green foxtail (green foxtail; [3]): 0 (Herbicidal rate of 5% or less (almost no effect)) | herbicidal effect on F: southern crabgrass (southern crabgrass; [3]): 0 (Herbicidal rate of 5% or less (almost no effect)) | herbicidal effect on M: velvetleaf (velvetleaf; [3]): 2 (Herbicidal rate of 20% or more and less than 40%) | herbicidal effect on I: wild oat (wild oat; [3]): 0 (Herbicidal rate of 5% or less (almost no effect)) | herbicidal effect on P: chickweed (chickweed; [3]): 0 (Herbicidal rate of 5% or less (almost no effect)) | herbicidal effect on J: blackgrass (blackgrass; [3]): 0 (Herbicidal rate of 5% or less (almost no effect)) | herbicidal effect on N: redroot pigweed (redroot pigweed; [3]): 3 (Herbicidal rate of 40% or more and less than 70%) | herbicidal effect on O: lambsquarters (lambsquarters; [3]): 1 (Herbicidal rate of 5% or more and less than 20%)

CSc1ccccc1-c1sc2ccc(C)cc2c1-c1c(O)c(C)nn(C)c1=O [2-142]
herbicidal effect on H: barnyard grass (barnyard grass [1]; [4]): 2 (Herbicidal rate of 20% or more and less than 40%) | herbicidal effect on H: barnyard grass (criteria 0-5) (barnyard grass [2]; [3]): 0 (Herbicidal rate of 5% or less (almost no effect)) | herbicidal effect on R: persian speedwell (criteria 0-5) (persian speedwell; [3]): 3 (Herbicidal rate of 40% or more and less than 70%) | herbicidal effect on K: Italian ryegrass (criteria 0-5) (Italian ryegrass; [3]): 1 (Herbicidal rate of 5% or more and less than 20%) | herbicidal effect on E: rice flat sedge (rice flat sedge; [4]): 2 (Herbicidal rate of 20% or more and less than 40%) | herbicidal effect on L: windgrass (criteria 0-5) (windgrass; [3]): 0 (Herbicidal rate of 5% or less (almost no effect)) | herbicidal effect on D: Chinese sprangletop (Chinese sprangletop; [4]): 0 (Herbicidal rate of 5% or less (almost no effect)) | herbicidal effect on G: green foxtail (criteria 0-5) (green foxtail; [3]): 0 (Herbicidal rate of 5% or less (almost no effect)) | herbicidal effect on F: southern crabgrass (criteria 0-5) (southern crabgrass; [3]): 0 (Herbicidal rate of 5% or less (almost no effect)) | herbicidal effect on M: velvetleaf (criteria 0-5) (velvetleaf; [3]): 0 (Herbicidal rate of 5% or less (almost no effect)) | herbicidal effect on I: wild oat (criteria 0-5) (wild oat; [3]): 1 (Herbicidal rate of 5% or more and less than 20%) | herbicidal effect on P: chickweed (criteria 0-5) (chickweed; [3]): 4 (Herbicidal rate of 70% or more and less than 90%) | herbicidal effect on J: blackgrass (criteria 0-5) (blackgrass; [3]): 1 (Herbicidal rate of 5% or more and less than 20%) | herbicidal effect on N: redroot pigweed (criteria 0-5) (redroot pigweed; [3]): 0 (Herbicidal rate of 5% or less (almost no effect)) | herbicidal effect on O: lambsquarters (criteria 0-5) (lambsquarters; [3]): 0 (Herbicidal rate of 5% or less (almost no effect))
